Here are results for 17 molecules from ChEMBL document CHEMBL4619768, “Limonoids from Cipadessa baccifera” (J Nat Prod, 2020).

Calls of active or inactive are those of the source. The calls are words filed in the database; no cut-off is given here.

One assay deals with Plasmodium falciparum. The assay can be described thus: Antimalarial activity against chloroquine-resistant ring-stage Plasmodium falciparum Dd2 incubated for 72 hrs by SYBR green1 dye-based assay. In kind it is functional, organism-based.
Settings: not given
For `COC(=O)[C@@H](O)[C@H]1C(C)(C)[C@H](OC(C)=O)[C@H](OC(C)=O)[C@@H]2O[C@]34CC(=O)O[C@@H](c5ccoc5)[C@]3(C)[C@@H](OC(C)=O)[C@@H](C(=O)[C@@H]4C)[C@@]21C`, the outcome was inactive.

For `COC(=O)C[C@H]1C(C)(C)[C@@H](O)[C@H](OC(C)=O)[C@@H]2OC3=C(C)C4=CC(=O)O[C@@H](c5ccoc5)[C@]4(C)[C@@H](O)[C@@H]3[C@@]21C`, the outcome was inactive.

In the case of `COC(=O)[C@@H](O)[C@H]1C(C)(C)[C@H](OC(C)=O)C[C@@H]2O[C@]34CC(=O)O[C@@H](c5ccoc5)[C@]3(C)C[C@@H](C(=O)[C@@H]4C)[C@@]21C`, the result was inactive.

On to `COC(=O)[C@@H](O)[C@H]1C(C)(C)[C@H](OC(C)=O)C[C@@H]2OC3=C(C)C4=CC(=O)O[C@@H](c5ccoc5)[C@]4(C)[C@@H](OC(C)=O)[C@@H]3[C@@]21C`, for which the outcome was inactive.

As for `C=C1C2[C@H](O)C[C@@]3(C)[C@H](c4ccoc4)CC(=O)C[C@]13O[C@H]1[C@@H](OC(=O)[C@H](C)CC)[C@H](O)C(C)(C)[C@H](CC(=O)OC)[C@@]21C`, the outcome was inactive.

For `COC(=O)[C@@H](O)[C@H]1C(C)(C)[C@H](OC(C)=O)C[C@@H]2O[C@]34CC(=O)O[C@@H](c5ccoc5)[C@]3(C)[C@@H](OC(C)=O)[C@@H](C(=O)[C@@H]4C)[C@@]21C`, the outcome was inactive.

Regarding `C=C1[C@@]23CC(=O)C[C@@H](c4ccoc4)[C@]2(C)C[C@@H](OC(C)=O)[C@]1(O)[C@@]1(C)[C@@H](O3)[C@@H](OC(=O)C(C)C)[C@H](O)C(C)(C)[C@@H]1CC(=O)OC`, the outcome was inactive.

On to `C=C1C2[C@H](O)C[C@@]3(C)[C@H](c4ccoc4)CC(=O)C[C@]13O[C@H]1[C@@H](OC(=O)[C@@H](C)CC)[C@H](O)C(C)(C)[C@H](CC(=O)OC)[C@@]21C`, for which the outcome was inactive.

With `COC(=O)[C@@H](O)[C@H]1C(C)(C)[C@H](OC(C)=O)[C@H](OC(C)=O)[C@@H]2O[C@]34CC(=O)O[C@@H](c5ccoc5)[C@]3(C)C[C@@H](C(=O)[C@@H]4C)[C@@]21C`, the outcome was inactive.

As to `COC(=O)C[C@H]1C(C)(C)[C@@H](OC(C)=O)[C@H](O)[C@@H]2OC3=C(C)C4=CC(=O)O[C@@H](c5ccoc5)[C@]4(C)[C@@H](O)[C@@H]3[C@@]21C`, the result was inactive.

Still in this assay, the particulars now being: Dd2, 72 h.
As for `C=C1[C@]2(O)CC[C@@]3(C)[C@H](c4ccoc4)CC(=O)C[C@]13O[C@H]1[C@@H](OC(=O)C(C)C)[C@H](O)C(C)(C)[C@H](CC(=O)OC)[C@]12C`, the half-inhibitory concentration (IC50) came to 20 µM.

`C[C@@H]1CC[C@H]2[C@@H](C)C(=O)O[C@@H]3O[C@@]4(C)CC[C@@H]1[C@]32OO4` [ARTEMISININ]: the IC50 came to 0.013 µM.

`C=C1[C@]2(O)CC[C@@]3(C)[C@H](c4ccoc4)CC(=O)C[C@]13O[C@H]1[C@@H](OC(=O)[C@@H](C)CC)[C@H](O)C(C)(C)[C@H](CC(=O)OC)[C@]12C` came in with an IC50 of 12.3 µM.

`C=C1[C@@]23CC(=O)C[C@@H](c4ccoc4)[C@]2(C)C[C@@H](OC(C)=O)[C@]1(O)[C@@]1(C)[C@@H](O3)[C@@H](OC(=O)[C@H](C)CC)[C@H](O)C(C)(C)[C@@H]1CC(=O)OC`: the IC50 was 23.1 µM.

On to `C=C1[C@]2(O)CC[C@@]3(C)[C@H](c4ccoc4)CC(=O)C[C@]13O[C@H]1[C@@H](OC(=O)[C@H](C)CC)[C@H](O)C(C)(C)[C@H](CC(=O)OC)[C@]12C`, for which the IC50 was determined as 16.3 µM.

Consider `COC(=O)C[C@H]1C(C)(C)[C@@H](O)[C@H](OC(=O)C(C)C)[C@@H]2O[C@]34CC(=O)O[C@@H](c5ccoc5)[C@]3(C)C[C@@H](C(=O)[C@@H]4C)[C@@]21C`, for which half-maximal inhibition (IC50) required 28 µM.

In turn, `COC(=O)[C@@H](O)[C@H]1C(C)(C)[C@@H](O)[C@H](OC(=O)C(C)C)[C@@H]2O[C@]34CC(=O)O[C@@H](c5ccoc5)[C@]3(C)C[C@@H](C(=O)[C@@H]4C)[C@@]21C` came in with an IC50 of 16.9 µM. This IC50 is about 1.7-fold lower than that of the molecule before.

The term IC50 denotes the midpoint of a concentration-inhibition curve.
